Measurements reported in publication PMC5703966, “Systemic clearance and brain distribution of carbazole-based cyanine compounds as Alzheimer’s disease drug candidates” (Scientific Reports, 2017).
Values joined by “and” are separate entries in the source; they are usually repeats but may differ in a detail not shown here. Equal values may be shown once. Read-outs that look alike come from different tables or passages of the source.

How the values were obtained:
[1] = Systemic clearance and pharmacokinetics after i.v. dose in C57BL/6 mice aging 2 months; assay type: in vivo, mouse; conditions: male, iv; for clearance / AUC(0-inf) / half-life / MRT inf / Vd: C57BL/6, mouse, plasma; for clearance: read-out: Cl p (converted); for MRT inf: read-out: MRT 0-∞; for Vd: read-out: Vd ss; for CL renal: mouse, urine and plasma, C57BL/6 mice, urine 0–24 h, read-out: Total Cl renal (converted)
Description: (§1) Male C57BL/6 and Bile duct-cannulated (BDC) mice (2 months, weighting: 25–30 g) obtained from Charles River, Inc. (Raleigh, NC) were used to study systemic clearance mechanism, in line with in vitro commercial samples from adolescent animals. Mice were fasted overnight and throughout the duration of the study ([…]), whereas access to water was provided ad libitum. SLOH and SLM were administered i.v. in PBS containing 5% DMSO via the tail vein (n = 5) at different dosages in a dosing volume of 5 mL/kg. Serial blood samples were collected before dosing and at 0.083, 0.167, 0.25, 0.5, 1, 2, 4, 8, 12 and 24 hours after dosing. Urine samples (0–12 and 12–24 hours; pooled 0–24 hours) were also collected after i.v. administration (1 mg/kg). Bile samples were collected at intervals of 0–4, 4–8 and 8–24 hours (pooled 0–24 hours) after dosing (1 mg/kg) to BDC mice.
(§2) Parameters in animals were determined using non-compartmental analysis. […] Systemic Cl p was calculated as the i.v. dose divided by AUC0−∞ ^iv. The terminal rate constant (K el) was calculated by a linear regression of the log-linear concentration-time curve, and the terminal elimination t 1/2 was calculated as 0.693 divided by K el. Mean residence time from t = 0 to infinity (MRT 0−∞) was calculated as AUMC 0−∞ divided by AUC 0−∞. Apparent steady-state distribution volume (Vd ss) was determined as Cl p multiplied by MRT 0−∞. […] The Cl bile was derived as the amount of (in milligrams) of SLM or SLOH in the bile over the 24-hour interval postdose/AUC0-24h. The influx clearance into brain (K in) was calculated by using the amount of drug in the brain (homogenate) at time t (A, brain (t)) (corrected for the amount of drug remaining in the cerebral vasculature) divided by plasma exposure up to this time point (AUC, plasma (0 − t)). The C u,brain was calculated by A brain (homogenate, ng/g brain) divided by V u,brain (mL/g brain). The unbound ISF to plasma ratio (K puu,brain) was calculated by unbound AUC 0−t of ISF (ng/mL × min) divided by unbound AUC 0–t (ng/mL × min) of plasma.

C57BL/6 mice = assay: as above; assay type: in vivo, mouse; conditions: for Cl u, renal/GFR Ratio: GFR in mice 0.6 L/h per Kg; for dose dependence of kinetics: i.v. 0.2 mg/kg to 4 mg/kg in mice; for biliary clearance share of plasma clearance / remaining / hepatic clearance share of plasma clearance (Clhep/Clp) / renal clearance share of plasma clearance: mice; for Liver first pass elimination: mouse, in vivo; for Cl u, renal: total Cl renal normalised with unbound free fraction in blood
Description: as §1, §2

[2] = 1 mg/kg, C57BL/6 mice 2 months, i.v. 1 mg/kg

| SMILES | clearance ([1]; 0.2 mg/kg, i.v. 0.2 mg/kg) | clearance ([1]; 0.6 mg/kg, i.v. 0.6 mg/kg) | clearance [1, 2] | clearance ([1]; 2 mg/kg, i.v. 2.0 mg/kg) | clearance ([1]; 4 mg/kg, i.v. 4.0 mg/kg) | AUC(0-inf) ([1]; i.v. 0.2 mg/kg) | half-life ([1]; i.v. 0.2 mg/kg) | MRT inf ([1]; i.v. 0.2 mg/kg) | Vd ([1]; i.v. 0.2 mg/kg) | AUC(0-inf) ([1]; i.v. 0.6 mg/kg) | half-life ([1]; i.v. 0.6 mg/kg) | MRT inf ([1]; i.v. 0.6 mg/kg) | Vd ([1]; i.v. 0.6 mg/kg) | half-life ([1]; i.v. 1.0 mg/kg) | MRT inf ([1]; i.v. 1.0 mg/kg) | Vd ([1]; i.v. 1.0 mg/kg) | half-life ([1]; i.v. 2.0 mg/kg) | MRT inf ([1]; i.v. 2.0 mg/kg) | Vd ([1]; i.v. 2.0 mg/kg) | half-life ([1]; i.v. 4.0 mg/kg) | also measured |
| --- | --- | --- | --- | --- | --- | --- | --- | --- | --- | --- | --- | --- | --- | --- | --- | --- | --- | --- | --- | --- | --- |
| COCCOCCn1c2ccccc2c2cc(/C=C/c3cc[n+](C)c4ccccc34)ccc21.[I-] [SLM, (E)-4-(2-(9-(2-(2-methoxyethoxy)ethyl)-9H-carbazol-3-yl)-vinyl)-1-methyl-quinolin-1-iumiodide] | 14.8 mL/min/kg | 15.5 mL/min/kg | ~11.8 mL/min/kg | 12.5 mL/min/kg | 13.8 mL/min/kg | 240 ± 74 ng·h/mL | 384 ± 240 min | 3.5 ± 0.95 h | 1.5 ± 0.63 L/kg | 580 ± 170 ng·h/mL | 360 ± 66 min | 3.7 ± 0.86 h | 2.1 ± 0.54 L/kg | 558 ± 198 min | 3.2 ± 1 h | 2.2 ± 0.61 L/kg | 426 ± 33 min | 2.5 ± 0.18 h | 1.7 ± 0.55 L/kg | 390 ± 120 min | MRT inf ([1]; i.v. 4.0 mg/kg): 3 ± 0.52 h; Vd ([1]; i.v. 4.0 mg/kg): 2.1 ± 0.2 L/kg; CL renal ([1]; i.v. 1 mg/kg): 0.667 mL/min/kg; Cl u, renal/GFR Ratio (C57BL/6 mice): 1.90 ± 0.390; dose dependence of kinetics (C57BL/6 mice): linearity kinetics dependent on dose; biliary clearance share of plasma clearance (C57BL/6 mice): 38.0%; remaining / hepatic clearance share of plasma clearance (Clhep/Clp) (C57BL/6 mice): 58.0%; renal clearance share of plasma clearance (C57BL/6 mice): 4.50%; Liver first pass elimination (C57BL/6 mice): 16.0 % liver blood flow; Cl u, renal (C57BL/6 mice): 1.10 L/h per Kg and 1.10 ± 0.230 L/h per Kg |
| COCCOCCn1c2ccccc2c2cc(/C=C/c3cc[n+](CCO)c4ccccc34)ccc21 [SLOH, (E)-1-(2-hydroxyethyl)-4-(2-(9-(2-(2-metho-xyethoxy)-ethyl)-9H-carbazol-3-yl)vinyl) quinolin-1-ium chloride] | 15.5 mL/min/kg | 12.8 mL/min/kg | ~10.2 mL/min/kg | 10.7 mL/min/kg | 11.8 mL/min/kg | 220 ± 61 ng·h/mL | 414 ± 222 min | 2.7 ± 1.5 h | 1 ± 0.33 L/kg | 860 ± 310 ng·h/mL | 330 ± 66 min | 2.3 ± 0.78 h | 1.2 ± 0.58 L/kg | 348 ± 9.6 min | 1.8 ± 0.1 h | 0.83 ± 0.43 L/kg | 276 ± 45.6 min | 1.8 ± 0.17 h | 1 ± 0.36 L/kg | 348 ± 102 min | MRT inf ([1]; i.v. 4.0 mg/kg): 1.7 ± 0.08 h; Vd ([1]; i.v. 4.0 mg/kg): 1 ± 0.35 L/kg; CL renal ([1]; i.v. 1 mg/kg): 0.167 mL/min/kg; Cl p (C57BL/6 mice; C57BL/6 mice 2 months, i.v. 1 mg/kg, 1 mg/kg): 0.610 ± 0.140 L/h per Kg; Cl u, renal/GFR Ratio (C57BL/6 mice): 0.260 ± 0.0400^$$; dose dependence of kinetics (C57BL/6 mice): linearity kinetics dependent on dose; biliary clearance share of plasma clearance (C57BL/6 mice): 34.0%; remaining / hepatic clearance share of plasma clearance (Clhep/Clp) (C57BL/6 mice): 64.0%; renal clearance share of plasma clearance (C57BL/6 mice): 1.10%; Liver first pass elimination (C57BL/6 mice): 16.0 % liver blood flow; Cl u, renal (C57BL/6 mice): 0.160 L/h per Kg and 0.160 ± 0.0300^$$ L/h per Kg |
